Reference: patent US5225528A, “Cyclic hexapeptide oxytocin antagonists” (priority 1990, dated 1993)
Where two headings read alike, the source gives them in different places. Square brackets hold non-standard residues; d marks the D form. Peptide text beside a SMILES is read from it. dPiz(1,6-dehydro) = O=C(O)[C@H]1CCC=NN1; Pip = O=C(O)[C@@H]1CCCCN1

Experiments:
AVP-V2 sites = target: T1, AVP-V2 sites (Rattus norvegicus, UniProt Q00788); assay: [^3 H]AVP binding to crude membrane preparation of male rat kidney medulla (AVP-V2 sites); conditions: for IC50: rat kidney medulla membranes, 2 nM [^3 H]AVP, read-out: Receptor Binding Results IC50 (nM) [^3 H]-AVP-V2
T1 construct: male rat liver (AVP-V1 sites) or kidney medulla (AVP-V2 sites); from tissue; host or cells: male rat kidney medulla, crude membranes
Protocol: (§1) Nonspecific binding (5-10% of the total binding) was determined using 10 μM unlabeled AVP, and the binding reaction was terminated by filtration as described above for the [^3 H]OT binding assay.

uterine OT receptors = target: T2, uterine OT receptors (Rattus norvegicus, UniProt P70536); assay: [^3 H]OT binding to uterine OT receptors, crude membrane preparation of uteri from DES-treated rats
T2 construct: from tissue; host or cells: uterus of DES-treated rats, crude membranes
T2 sequence (P70536 1-388): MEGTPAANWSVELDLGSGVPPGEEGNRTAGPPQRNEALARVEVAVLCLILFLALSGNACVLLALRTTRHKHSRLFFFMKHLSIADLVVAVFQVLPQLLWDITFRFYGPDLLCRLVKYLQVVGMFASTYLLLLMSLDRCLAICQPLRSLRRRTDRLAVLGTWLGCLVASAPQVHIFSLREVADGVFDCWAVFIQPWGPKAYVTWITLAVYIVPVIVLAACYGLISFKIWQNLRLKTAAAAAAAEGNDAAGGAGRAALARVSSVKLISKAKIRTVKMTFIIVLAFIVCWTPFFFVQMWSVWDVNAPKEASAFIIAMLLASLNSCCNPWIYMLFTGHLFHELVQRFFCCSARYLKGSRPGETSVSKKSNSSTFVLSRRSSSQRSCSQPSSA
Protocol: Competition studies were conducted at equilibrium (60 minutes; 22° C.) using 1 nM [^3 H]OT in the following assay buffer: 50 mM Tris-HCl, 5 mM MgCl2, and 0.1% BSA, pH 7.4.

AVP-V1 sites = target: T3, AVP-V1 sites (Rattus norvegicus, UniProt P30560); assay: [^3 H]AVP binding to crude membrane preparation of male rat liver (AVP-V1 sites); conditions: for IC50: read-out: Receptor Binding Results IC50 (nM) [^3 H]-AVP-V1
T3 construct: crude membrane preparation of male rat liver (AVP-V1 sites); from tissue; host or cells: male rat liver, crude membranes
Protocol: as §1

[1] = rat uterus membranes, 1 nM [^3 H]OT, read-out: Receptor Binding Results IC50 (nM) [^3 H]OT
[2] = rat liver membranes, 1 nM [^3 H]AVP

T1 sequence (Q00788 whole entry): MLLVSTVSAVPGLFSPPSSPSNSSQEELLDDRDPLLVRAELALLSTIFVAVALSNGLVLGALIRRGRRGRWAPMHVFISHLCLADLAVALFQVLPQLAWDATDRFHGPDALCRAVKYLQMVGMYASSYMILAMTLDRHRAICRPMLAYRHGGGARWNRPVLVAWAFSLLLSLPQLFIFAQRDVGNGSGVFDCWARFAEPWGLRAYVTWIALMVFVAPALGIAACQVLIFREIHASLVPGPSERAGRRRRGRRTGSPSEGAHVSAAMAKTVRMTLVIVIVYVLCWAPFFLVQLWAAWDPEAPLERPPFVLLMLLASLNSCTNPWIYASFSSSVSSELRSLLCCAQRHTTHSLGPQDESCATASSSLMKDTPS
T3 sequence (P30560 whole entry): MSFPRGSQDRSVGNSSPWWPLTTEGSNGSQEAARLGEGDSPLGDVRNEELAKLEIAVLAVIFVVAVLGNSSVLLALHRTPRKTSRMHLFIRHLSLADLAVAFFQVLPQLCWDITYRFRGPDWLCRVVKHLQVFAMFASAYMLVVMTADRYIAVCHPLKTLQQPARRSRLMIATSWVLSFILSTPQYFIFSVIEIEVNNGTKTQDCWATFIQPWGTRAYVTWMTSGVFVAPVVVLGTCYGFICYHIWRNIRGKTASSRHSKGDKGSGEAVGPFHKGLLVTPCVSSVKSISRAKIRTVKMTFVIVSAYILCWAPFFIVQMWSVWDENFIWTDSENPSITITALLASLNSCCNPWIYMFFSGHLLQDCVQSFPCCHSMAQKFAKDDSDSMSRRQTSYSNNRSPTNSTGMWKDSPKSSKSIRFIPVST

| IC50 (AVP-V2 sites) | IC50 (uterine OT receptors; [1]) | IC50 (AVP-V1 sites; [2]) | [^3 H]-AVP-V2: percent inhibition of radioligand at the given concentration (AVP-V2 sites; @ 10,000 (nM)) | [^3 H]OT: percent inhibition of radioligand at the given concentration (uterine OT receptors; @ 1,000 (nM)) | [^3 H]-AVP-V1: percent inhibition of radioligand at the given concentration (AVP-V1 sites; @ 10,000 (nM)) | Compound | IC50 (uterine OT receptors; Receptor Binding Results IC50 (nM) [^3 H]OT) | IC50 (AVP-V1 sites) |
| --- | --- | --- | --- | --- | --- | --- | --- | --- |
| > 30000 nM | 1100 nM | > 30000 nM |  |  |  | C-[D,L-3-(3-(5-Methoxy)indolyl)alanyl-L-isoleucyl-D-pipecolyl-L-pipecolyl-D-histidyl-L-prolyl] [Example 156] |  |  |
| 7300 nM | 680 nM | 13000 nM |  |  |  | c-[D,L-3-(3-(5-Methyl)indolyl)alanyl-L-isoleucyl-D-pipecolyl-L-pipecolyl-D- histidyl-L-prolyl] [Example 154] |  |  |
|  |  |  | 81% | 79% | 54% | c-[D-2-Trytophanyl-L-isoleucinyl-D-pipecolyl-L-piperazin-2-yl-(4-Cbz)-D-histidinyl(BOM)-L-prolyl] [Example 175] |  |  |

| Compound | IC50 (AVP-V2 sites) | IC50 (uterine OT receptors; [1]) | IC50 (AVP-V1 sites; [2]) | [^3 H]-AVP-V2: percent inhibition of radioligand at the given concentration (AVP-V2 sites; @ 10,000 (nM)) | [^3 H]OT: percent inhibition of radioligand at the given concentration (uterine OT receptors; @ 1,000 (nM)) | [^3 H]-AVP-V1: percent inhibition of radioligand at the given concentration (AVP-V1 sites; @ 10,000 (nM)) | IC50 (uterine OT receptors; Receptor Binding Results IC50 (nM) [^3 H]OT) | IC50 (AVP-V1 sites) |
| --- | --- | --- | --- | --- | --- | --- | --- | --- |
| CC[C@H](C)[C@@H]1NC(=O)[C@@H](Cc2c[nH]c3ccccc23)NC(=O)[C@@H]2CCCN2C(=O)[C@@H](Cc2cnc[nH]2)NC(=O)[C@@H]2CCCCN2C(=O)[C@H]2CCC=NN2C1=O [Example 184, c-[D-Tryptophanyl-L-isoleucinyl-D-Δ-piperazyl-L-pipecolyl-D-histidyl-L-prolyl]] (cyclo(I[dPiz(1,6-dehydro)][Pip][dH]P[dW])) | 1050 nM |  |  |  |  |  | 6 nM | 3980 nM |
